# Measured values published in patent publication US8883504B2, “Cell differentiation suppressing agent, method of culturing cells using the same, culture solution, and cultured cell line” (Asahi Kasei Kabushiki Kaisha, priority 2003, dated 2014).
# How the values were obtained:
# [1] = test system: Oct-3/4 gene; assay: Oct-3/4 gene expression level by real time PCR (ES cell differentiation inhibition assay 2); format: cell-based, mouse; conditions: D3ES cells, 7 days
# Experimental: For the D3ES cells prepared by the method described in (3) preparation of a mouse ES cell of Example 1, 8×10^4 cells were seeded in a 10 cm-diameter cell culture dish coated previously with a 0.1% aqueous gelatin solution to make 10 mL of the ES cell assay medium. 1 mL of the differentiation inhibiting agent A to F, which were dissolved in dimethylsulfoxide (DMSO) or culture medium or their mixture to make 40 μg/mL per each dish, or ESGRO, which was adjusted to make 10^4 unit/mL, was added, and culturing was carried out at 37° C. in 5% […] incubator for 7 days. To the culture medium was added DMSO to make the final concentration 0.1% or lower.
# A total RNA was extracted from the ES cells cultured by the method described in (1) ES cell differentiation inhibition assay 2 as described above, by using ISOGEN (K.K. Nippon Gene, Japan made) by the attached method. First, the medium was removed from the dish after the culture, the cells were washed twice with 10 mL of PBS, and dissolved in 1 mL of ISOGENE. After leaving stand at room temperature for 5 minutes, the solution was collected in a 1.5 mL Eppendorf tube. 0.2 mL of chloroform (Wako Pure Chemical Industries made) was added, shaken for 15 seconds and, then, left stand at room temperature for 2 or 3 minutes. The solution was centrifuged at 4° C. at 10000 rpm for 10 minutes by using a micro centrifuge (TOMY SEIKO Corp. made). 400 μL of the supernatant was transferred to a fresh 1.5 mL Eppendorf tube, 500 μL of isopropanol (Wako Pure, Chemical Industries made) was added, and left stand at room temperature for 10 minutes, and, then, centrifuged at 4° C. at 10000 rpm for 10 minutes by using the micro centrifuge. After the supernatant was removed, 1 mL of a 70% aqueous ethanol solution was added followed by shaking and, then, centrifugation was carried out at 4° C. at 10000 rpm for about 5 minutes by using, the micro centrifuge. After the supernatant was removed, a precipitation was dried and dissolved in 30 μL of distilled water to obtain the total RNA solution.
# 2 μg of the thus obtained total RNA was used as a template to synthesize a cDNA according to the attached protocol by using Deoxyribonuclease I (Amplification Grade)(Invitrogen Corp. made), Oligo(dT) 12-18 primer (Invitrogen Corp. made, 18418-012) and Omniscript reverse transcriptase (QIAGEN Corp, made). Thus, a reaction solution was prepared by adding 1 μL of 10× DNaseI Reaction Buffer, 1 μL of 10× DNaseI (all were made by Invitrogen Corp.) and distilled water to 2 μg of total RNA to make 10 μL in total, and the mixture was incubated at room temperature for 10 minutes. 1 μL of 25 mM EDTA solution was added and heated at 65° C. for 10 minutes. The mixture was cooled to room temperature, and then, 2 μL of 10× Buffer RT, 2 μL of 5 mM dNTP Mix, 2 μL of Oligo(dT) 12-18 primer, 0.25 μL of RNaseOUT (Invitrogen Corp. made, 10777-019) and 1 μL of Omniscript Reverse Transcriptase were added, and RNase-free purified water was added to give the total volume of 20 μL, and the mixture was incubated at 37° C. for 60 minutes to obtain cDNA solution. A portion of the synthesized cDNA obtained in such the way was diluted 5 folds with distilled water, and 2 μL of the solution was used as the template to conduct PCR by using Light Cycler-Fast Start DNA Master SYBR Green I Kit (Roche Diagnostics Corp. made) according to the attached protocol. The expression levels of the Oct-3/4 gene and glyceraldehyde-3-phosphate dehydrogenase (GAPDH) gene as the internal standard were measured. For amplifying the Oct-3/4 gene, sense primer OCT3 up (SEQ ID No.: 1) and antisense primer Oct3 down (SEQ ID No.: 2) were used, and for amplifying the GAPDH gene, sense primer GAPDH up (SEQ ID No.: 3) and antisense primer GAPDH down (SEQ ID No.: 4) were used. The composition of the PCR reaction solution and the reaction condition will be each presented below.
# [2] = test system: Nanog gene; assay: Nanog gene expression level by real time PCR (ES cell differentiation inhibition assay 3); format: cell-based, mouse; conditions: D3ES cells, 4 μg/mL, 1 day, GAPDH internal standard, FIG. 7
# Experimental: For the D3ES cells prepared by the method described in (3) preparation of a mouse ES cell of Example 1, 7.85×10^5 cells were seeded in a 10 cm-diameter cell culture dish coated previously with a 0.1% aqueous gelatin solution to make 10 mL of the ES cell assay medium. The differentiation inhibiting agent B of the present invention in the final concentration of 4 μg/mL or ESGRO in the final concentration of 1×10^3 unit/mL was added to each dish, and culturing was carried out at 37° C. in 5% CO2 incubator for 1 day.
# The total RNA was extracted from the ES cell cultured by the method shown in (3) ES cell differentiation inhibition assay 3 as described above by using ISOGEN (K.K. Nippon Gene Corp. Japan made) by the attached method. In this method, the cell was collected in a 15 mL sterilized tube, centrifuged at 1,000 rpm for about 5 minutes by using the table centrifuge (TOMY SEIKO made) to make pellets. The supernatant was removed, the pellets were washed twice with 10 mL of PBS, and then, transferred to a 1.5 mL Eppendorf tube. The pellets were dissolved in 1 ml ISOGENE and left stand at room temperature for 5 minutes and, then, added with 0.2 mL of chloroform (Wako Pure Chemicals), shaken for 15 seconds, and left stand at room temperature for 2 or 3 minutes. Centrifugation was carried out at 4° C. at 10,000 rpm for 15 minutes by using the micro centrifuge (TOMY SEIKO made), 400 μL of the supernatant was transferred to a fresh 1.5 mL Eppendorf tube. 500 μL of isopropanol (Wako Pure Chemicals) was added and the mixture was left stand at room temperature for 10 minutes and, then, was centrifuged at 4° C. at 10,000 rpm for 10 minutes by using the micro centrifuge. The supernatant was removed and, then, 1 mL of a 70% ethanol aqueous solution was added. The mixture was shaken and then was centrifuged at 4° C. at 10,000 rpm for about 5 minutes by using the micro centrifuge. The supernatant was removed and the precipitation was dried and, then, dissolved in 30 μL of distilled water to obtain the total RNA solution.
# The cDNA was synthesized by using 2 μg of the total RNA obtained by such the way as the template, using DeoxyribonucleaseI (Amplification Grade) (Invitrogen Corp. made) and SuperScript III First-Strand Synthesis System for RT-PCR (Invitrogen Corp. made, 18080-051) by the attached protocol. In this step, 1 μL of 10× DNaseI Reaction Buffer, 1 μL of 10× DNaseI (all these were of Invitrogen Corp. made) were added to 2 μg of the total RNA to give the total volume of 10 μL by adding distilled water to prepare the reaction solution, and then incubation was carried out at room temperature for 10 minutes. 1 μL of 25 mM EDTA solution was added, and the mixture was heated at 65° C. for 10 minutes and then, cooled to room temperature. 8 μL of the reaction solution was taken out, and 1 μL of […] Oligo(dT) 20 primer and 1 μL of 10 mM dNTP Mix were added, and incubation was carried out at 65° C. for 5 minutes. The reaction solution was placed on ice for 1 minute, and then 2 μL of 10× RT Buffer, 4 μL of 25 mM MgCl2, 2 μL of 0.1 M DTT, 1 μL of RNaseOUT (Invitrogen Corp. made) and 1 μL of SuperScript III RT were added for incubation at 50° C. for 50 minutes. Subsequently, incubation was carried out at 85° C. for 5 minutes, and then the mixture was left stand on ice for 1 min. […] The expression level of the Nanog gene and the glyceraldehyde-3-phosphate dehydrogenase (GAPDH) gene as the internal standard were measured. […]
smiles,measurement,setting,value
"COc1cccc(N=NC(C(N)=O)=C2NC(C)(C)Cc3ccccc32)c1 [D, 2-(3,3-dimethyl-3,4-dihydro-2H-isoquinoline-1-ylidene)-2-(3-methoxy-phenylazo)-acetamide]",expression of Oct-3/4 gene in comparison with ES cells cultured in the medium without the differentiation inhibiting agent,"[1]; GAPDH internal standard, FIG. 6",significantly promoted
same,effect of keeping the expression of the Oct-3/4 gene relative to ESGRO,"[1]; compared with 1,000 units/mL of ESGRO","comparable with 1,000 units/mL of ESGRO"
same,"expression level of Nanog gene in comparison with medium without agent and medium containing 1,000 units/mL of ESGRO",[2],increased similarly to the differentiation inhibiting agents B
